Experimental data taken from patent publication US20050208058A1, “Compositions and methods for modulating cell division” (priority 2003, published 2005).
d = 2'-deoxy (DNA)

Key:
Assay type in all cases: cell-based, human
RPE cells [1] = assay: BrDU staining of cells treated in tandem with two siRNAs (p53 dependence); conditions: FIG. 6B
Description: (§1) To further study the effects of silencing centrosomal genes, the following cell cycle experiments were performed using RPE cells. In immunofluorescence experiments, cells were delivered by OLIGOFECTAMINE in a media solution containing between 1-100 nanomolar concentration of siRNAs. After 4 hours of incubation with lipofectamine, cells were washed, and cell cycle progression was assayed by (i) treating cells with 5-Bromo-2′-deoxyuridine (BrDU from Sigma, St Louis, Mo.) for 24 hours and staining for BrDU or (ii) staining cells with antibody to Ki-67 (BD Biosciences) according to manufacturer's instructions. BrDU treatment and staining were performed as follows: after 50-70 hours incubation with siRNA, BrDU was added to cells at a final concentration of 5 μg/ml. Cells were fixed in −20° C. methanol and then treated with 2N HCL at 22° C. for 30 minutes, incubated with 1:500 mouse anti-BrdU antibody (Becton Dickinson, Palo Alto, Calif.), and labeled with 1:1,000 goat FITC-mouse antibody (Molecular Probes, Inc.). Cells were also treated with 4′,6-diamidino-2-phenylindole (DAPI) (Molecular Probes) according to the manufacturer's instructions. Cells were prepared, imaged, and the resulting images were deconvolved as described in Example 1.
(§2) A number of experiments were conducted to determine if p53 is required for the cell cycle arrest phenotype described herein. FACS analysis of tandem siRNA-treated cells was performed as described in Example 2. BrDU and DAPI imaging was performed as described in Example 2. Intracellular p53 was visualized using anti-p53 antibody that is specific for activated p53 (i.e., p53 phosphorylated at Serine 33) (“α-Pser33-p53” provided by Yoichi Taya and described in Kishis et al., J. Biol. Chem., 276:39115-3922, 2001)

RPE cells [2] = assay: FACS of cells treated in tandem with two siRNAs (p53 dependence); conditions: tandem treatment sip53 then siGCP2; FIG. 6A
Description: For flow cytometry (i.e., fluorescence-activated cell sorter or FACS) experiments, siRNAs were delivered to cells as described above, and were incubated for 50-70 hours. To synchronize cells, nocodazole was added to the cells to a concentration of 5 μg/mL for 12 hours. Cells were stained with propidium iodide and analyzed by flow cytometry (FACSCAN; Becton Dickinson) using FLOJO® software (Tree Star, Inc., Ashland, Oreg.).
as §2
In FIG. 6A each line tracing represents FACS data from cells treated in tandem with the siRNAs directed to the gene products indicated above the line. Cells were first treated with siRNA directed to the gene product to the left of the slash. Up to 24 hours later, siRNA directed to the gene product to the right of the slash was added. […] 12 hours before collecting the cells, nocodazole was added to the cells analyzed in the bottom three line tracings. […]

p53 = assay: Western blot of p53 in cytoplasmic and nuclear fractions; conditions: relative to mock or silamin transfected cells; FIG. 6D
Description: The Western blot shown cytoplasmic (cyt), and nuclear (nuc) cell fractions blotted with an antibody to p53 (from Callbiochem, San Diego, Calif.). Nuclear fractions were blotted with an antibody for H1 as a control for loading.

CDK2 = CDK2 kinase assay from siRNA-treated cells; conditions: after sustained siRNA treatment, vs siRNA to laminin; FIG. 2C
Description: Kinase assays were done on RPE cells treated with siRNAs as described above. Treated cells were lysed in 1% NP-40 lysis buffer (NP-40 buffer: 20 mM NaPO4 pH 7.4, 1% NP-40, 250 mM NaCl, 5 mM ethylenediaminetetraacetic acid (EDTA), 5 mM dithiothreitol (DTT), 1 mM phenylmethylsulfonyl fluoride, 2 μg/ml leupeptin, and 1.5 μg/ml aprotinin) supplemented with 25 mM-glycerophosphate. For measurement of CDK2-associated activity in vitro, the complexes were immunoprecipitated for 2 hours at 4° C. using anti-cylin A antibody (Santa Cruz Biotechnology). Immunocomplexes were bound to protein A-Sepharose beads for an additional hour at 4° C. and washed four times with lysis buffer followed by one wash with the kinase buffer (20 mM Tris-HCl pH 7.5, 50 mM KCl, 7.5 mM MgCl 2, 1 mM DTT, 25 mM-glycerophosphate, 1 mM phenylmethylsulfonyl fluoride, 2 μg/ml leupeptin, and 1.5 μg/ml aprotinin). […] Phosphorylated proteins were analyzed on 10% SDS-polyacrylamide gels followed by autoradiography and quantified by phosphorimaging (Molecular Imager GS-250; Bio-Rad, Hercules, Calif.).
FIG. 2C is a graph quantifying the results of CDK2 kinase assays from cells treated with siRNA directed to laminin or pericentrin B. CDK2 activity is required for proliferating cells through to progress through the G1 stage of the cell cycle.

RPE cells [3] = assay: BrDU incorporation after siRNA treatment and nocodazole synchronization; conditions: relative to control cells (siRNA to lamin), after nocodazole release; FIG. 2A
Description: as §1
Upon release from nocodazole treatment, proliferating cells typically resume cell cycle progression. Chromosomal DNA in the cells was imaged using DAPI (faint ghost-like staining) and/or BrDU (brighter staining). Although DAPI can be used to visualize DNA at any stage of the cell cycle, BrDU is only incorporated into newly synthesized DNA only during S-phase. Thus, BrDU incorporation can be used as a marker of cells that progress through at least one S-phase of the cell cycle. Control cells in this experiment were treated with siRNA to lamin.

| Sequence | effect of pretreatment on number of cells that divided after sipericentrin or siGCP2 (RPE cells [1]; sip53 pretreatment, 6C) | effect of pre-treatment on siGCP2-mediated block of the nocodazole shift (RPE cells [2]) | nuclear p53 (Western blot) (p53) | cells incorporating BrDU (RPE cells [1]; tandem treatment silaminin then indicated siRNA, vs silamin/silamin) | CDK2 expression and/or activity (CDK2) | incorporation of BrDU into chromosomal material (RPE cells [3]) |
| --- | --- | --- | --- | --- | --- | --- |
| GGACAAGGGUUGGGCUGGG (siRNA; RNA, 3' dTdT, backbone not given here) [sip53, siRNA directed to p53, reference compound] | increased the number of cells that divided | inhibited the siGCP-mediated block of the nocodazole shift | nuclear p53 is activated |  |  |  |
| UUGGAACAGCUGCAGCAGA (siRNA; RNA, 3' dTdT, backbone not given here) [pericentrin B, siRNA directed only to pericentrin B (Kendrin)] |  |  |  | substantially fewer | greatly diminished | clearly inhibited incorporation of BrDU |
